What is called IC50 is the concentration that inhibits the measured activity by half. Lower therefore signals higher potency.

Where only a bound is given, the exact number is not on record here.

From ChEMBL document CHEMBL1147550, “Capped dipeptide phenethylamide inhibitors of the HCV NS3 protease” (Bioorg Med Chem Lett, 2004) come the findings set out here.

Genome polyprotein, sequence (P26664 1027-1657 limits assumed): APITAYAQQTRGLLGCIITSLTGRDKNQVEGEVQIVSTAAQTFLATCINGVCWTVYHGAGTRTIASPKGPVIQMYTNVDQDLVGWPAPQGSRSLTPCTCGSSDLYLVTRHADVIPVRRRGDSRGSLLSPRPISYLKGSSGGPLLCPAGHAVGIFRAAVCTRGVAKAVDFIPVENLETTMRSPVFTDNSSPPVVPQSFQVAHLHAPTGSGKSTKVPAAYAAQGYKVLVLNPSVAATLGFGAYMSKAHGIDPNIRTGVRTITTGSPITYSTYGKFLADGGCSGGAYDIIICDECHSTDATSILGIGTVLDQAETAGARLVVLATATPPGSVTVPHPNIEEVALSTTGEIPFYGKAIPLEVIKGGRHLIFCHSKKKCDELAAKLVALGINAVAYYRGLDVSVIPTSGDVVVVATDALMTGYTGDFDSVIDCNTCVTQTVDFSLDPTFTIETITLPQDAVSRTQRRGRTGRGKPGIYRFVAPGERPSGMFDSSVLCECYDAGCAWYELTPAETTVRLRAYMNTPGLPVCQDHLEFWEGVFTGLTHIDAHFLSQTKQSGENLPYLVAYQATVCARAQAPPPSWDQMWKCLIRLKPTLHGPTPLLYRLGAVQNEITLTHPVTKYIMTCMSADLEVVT

This experiment has as its target Genome polyprotein (Hepatitis C virus genotype 1a (isolate 1) (HCV), UniProt P26664). The experiment is described as follows: Inhibition of Hepatitis C virus NS3 protease in vitro.
Take `CC(C)[C@H](O)C(=O)N1C[C@H](c2ccccc2)C[C@H]1C(=O)N[C@@H](CC(F)F)C(=O)NCCc1c(F)cc(C(=O)O)cc1F`: the IC50 worked out at 18 µM.

`O=C(O)c1cc(F)c(CCNC(=O)[C@H](CC(F)F)NC(=O)[C@@H]2C[C@@H](c3ccccc3)CN2C(=O)CC2CCCC2)c(F)c1` gave an IC50 of 34 µM.

Take `O=C(O)c1cc(F)c(CCNC(=O)[C@H](CC(F)F)NC(=O)[C@@H]2C[C@@H](c3ccccc3)CN2C(=O)[C@H](O)c2ccccc2)c(F)c1`: the IC50 is more than 100 µM.

Regarding `CC(C)COC(=O)N[C@H](C(=O)N[C@@H](CC(C)C)C(=O)N[C@@H](CC(F)F)C(=O)NCCc1ccc(C(=O)O)cc1Cl)C(C)C`, half-maximal inhibition (IC50) required 2.4 µM.

`CC(C)(C)[C@H](O)C(=O)N1C[C@H](c2ccccc2)C[C@H]1C(=O)N[C@@H](CC(F)F)C(=O)NCCc1c(F)cc(C(=O)O)cc1F` gave a 50% inhibitory concentration (IC50) of 18 µM.

Regarding `O=C(O)c1cc(F)c(CCNC(=O)[C@H](CC(F)F)NC(=O)[C@@H]2C[C@@H](c3ccccc3)CN2C(=O)[C@H](O)C2CCCC2)c(F)c1`, the IC50 was determined as 62 µM.

The compound `CC(C)[C@H](O)C(=O)N1C[C@H](OCc2ccccc2Cl)C[C@H]1C(=O)N[C@@H](CC(F)F)C(=O)NCCc1c(F)cc(C(=O)O)cc1F` returned an IC50 of more than 100 µM.

Regarding `O=C(O)c1cc(F)c(CCNC(=O)[C@H](CC(F)F)NC(=O)[C@@H]2C[C@@H](c3ccccc3)CN2C(=O)C(O)C2CC2)c(F)c1` (stereo partly specified), the IC50 was more than 100 µM.

With `CC(C)[C@H](O)C(=O)N1C[C@H](OCc2ccccc2)C[C@H]1C(=O)N[C@@H](CC(F)F)C(=O)NCCc1c(F)cc(C(=O)O)cc1F`, the IC50 is 27 µM.

`CC(C)COC(=O)N[C@H](C(=O)N1C[C@H](c2ccccc2)C[C@H]1C(=O)N[C@@H](CC(F)F)C(=O)NCCc1c(F)cc(C(=O)O)cc1F)C(C)C`: the midpoint of inhibition, the IC50, lay at 0.9 µM.

`CC(C)[C@@H](O)C(=O)N1C[C@H](c2ccccc2)C[C@H]1C(=O)N[C@@H](CC(F)F)C(=O)NCCc1c(F)cc(C(=O)O)cc1F` came in with an IC50 of more than 100 µM.

`CC(C)CC(=O)N1C[C@H](c2ccccc2)C[C@H]1C(=O)N[C@@H](CC(F)F)C(=O)NCCc1c(F)cc(C(=O)O)cc1F` showed an IC50 of 58 µM.

The compound `O=C(O)c1cc(F)c(CCNC(=O)[C@H](CC(F)F)NC(=O)[C@@H]2C[C@@H](c3ccccc3)CN2C(=O)[C@@H](O)C2CCCCC2)c(F)c1` registered an IC50 of 14 µM.

For the compound `CCC(CC)C(O)C(=O)N1C[C@H](c2ccccc2)C[C@H]1C(=O)N[C@@H](CC(F)F)C(=O)NCCc1c(F)cc(C(=O)O)cc1F` (stereo partly specified), the IC50 was 50 µM.

`CC(C)[C@H](O)C(=O)N1C[C@H](OCCCc2ccccc2)C[C@H]1C(=O)N[C@@H](CC(F)F)C(=O)NCCc1c(F)cc(C(=O)O)cc1F` registered an IC50 of 11 µM.

`O=C(O)c1cc(F)c(CCNC(=O)[C@H](CC(F)F)NC(=O)[C@@H]2C[C@@H](c3ccccc3)CN2C(=O)C(O)Cc2ccccc2)c(F)c1` (stereo partly specified) had an IC50 of more than 100 µM.

`CC(C)C[C@H](NC(=O)[C@H](O)c1ccccc1)C(=O)N[C@@H](CC(F)F)C(=O)C(=O)O`: half-maximal inhibition (IC50) required 3 µM.

Regarding `CC(C)[C@H](O)C(=O)N1C[C@H](OC2CCCCC2)C[C@H]1C(=O)N[C@@H](CC(F)F)C(=O)NCCc1c(F)cc(C(=O)O)cc1F`, the IC50 came to 32 µM.

Compound `O=C(O)c1cc(F)c(CCNC(=O)[C@H](CC(F)F)NC(=O)[C@@H]2C[C@@H](c3ccccc3)CN2C(=O)[C@@H](O)C2CCCC2)c(F)c1` had an IC50 of 13 µM.

In the case of `O=C(O)c1cc(F)c(CCNC(=O)[C@H](CC(F)F)NC(=O)[C@@H]2C[C@@H](c3ccccc3)CN2C(=O)[C@@H](O)c2ccccc2)c(F)c1`, the IC50 was more than 100 µM.

Consider `CC(C)[C@H](O)C(=O)N1C[C@H](OCc2ccc(Br)cc2)C[C@H]1C(=O)N[C@@H](CC(F)F)C(=O)NCCc1c(F)cc(C(=O)O)cc1F`, for which the IC50 amounted to 12 µM.
